For 13 compounds, GI50 and TGI results are on record in PubChem BioAssay (NCI).

Common to all, as to test: growth of human tumour cells (NCI), 48 h
For test [1], the system named is A498 renal.
Test [2] deals with HCC-2998 colon.
Test [3] has as its system HCT-116 colon.
Test [4] has as its system HL-60(TB) leukemia.
Test [5] deals with LOX IMVI melanoma.
In test [6] the test system is U251 CNS.
The test system of test [7] is SN12C renal.
Test [8] deals with SK-MEL-5 melanoma.
For test [9], the system named is TK-10 renal.
Test [10] deals with MALME-3M melanoma.

Molecules are shown by their SMILES.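 Tested at 5 concentrations; 48 h exposure; 96-well plates; endpoints linearly interpolated, else capped at highest concentration. GI50 = concentration required for 50% inhibition of growth. TGI: total growth inhibition.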

Take `C=C1C(=O)O[C@H]2[C@H]1CC/C(COC(=O)C(=O)c1cn(Cc3ccccc3)c3ccccc13)=C\CC[C@@]1(C)O[C@@H]21`: the GI50 was 18.5 µM in test [1]; 1.91 µM in [2]; 1.62 µM in test [3]; 2.26 µM in test [4]; 1.21 µM in test [5]; 4.01 µM in test [6]. For the same compound, the GI50 is 2.3 µM in [7], 1.99 µM in [8], 2.33 µM in test [9] and 2.08 µM in [10]. The TGI in test [1] is 35.2 µM; in test [2], 4.26 µM; in test [3] it was 3.36 µM; in test [4], 7 µM; in test [5], 2.57 µM; in test [6], 14.7 µM. Also, the TGI in test [7] came to 6.03 µM; in test [8] it was 4.1 µM; in test [9], 5.47 µM; in test [10], 4.39 µM.

As for `CN1CCN(CCCOc2ccc3nc(Nc4ccc(Cl)c(C(F)(F)F)c4)ccc3c2)CC1`, the GI50 was 13.7 µM in test [1]; 14.8 µM in test [2]; 8.44 µM in [3]; 13.9 µM in [4]; 4.07 µM in test [5]; 12.5 µM in test [6]. The GI50 in test [7] was 13.8 µM; in [8], 15.1 µM; in [9] it was 18.3 µM; in [10], 11.3 µM. Besides, the TGI in [1] is 28.8 µM; in test [2] it was 30.4 µM; in [3], 21.7 µM; in test [4], 31.1 µM; in test [5] it was 15.9 µM; in test [6], 26.2 µM. The TGI was 30.2 µM in test [7], 29.1 µM in [8], 32.8 µM in [9] and 28.4 µM in test [10].

On to `COC(=O)[C@@H](C)CNS(=O)(=O)N(c1cc(C(F)(F)F)cc(C(F)(F)F)c1)C1CCN(Cc2ccc(F)cc2)CC1`, for which the GI50 in test [1] was 12.8 µM; in test [2], 3.01 µM; in [3] it was 4.41 µM; in test [4] it was 4.69 µM; in [5], 8.1 µM; in [6] it was 10.2 µM. For the same compound, the GI50 in test [7] is 4.69 µM; in test [8], 3.19 µM; in test [9], 17.2 µM; in test [10] it was 6.89 µM. The TGI in [1] came out at 26.2 µM; in [2] it was 11.7 µM; in [3], 16.4 µM; in [4], 18.2 µM; in test [5], 25 µM; in test [6], 27.9 µM. Besides, the TGI is 18.5 µM in test [7], 12 µM in test [8], 32.7 µM in [9] and 22.3 µM in [10].

As to `COC(C(O)CO)C(O)C(O)C(=O)NNc1ccccc1` (centres undefined), the TGI in test [1], in test [2], in [3], in test [4], in test [5] and in [6] was above 100 µM each time. Also, the TGI in test [7], in test [8], in test [9] and in test [10] was above 100 µM each time.

Take `CN1C/C=C\CCOc2cccc(c2)-c2ccnc(n2)Nc2cccc(c2)C1`: the GI50 in test [1] is 0.0572 µM; in test [2] it was 0.0802 µM; in test [3], 0.0298 µM; in test [4], 0.0232 µM; in test [5], 0.0343 µM; in test [6], 0.0374 µM. Also, the GI50 was 0.0556 µM in test [7], 0.0502 µM in test [8], 0.0762 µM in test [9] and 0.107 µM in [10]. Besides, the TGI stood at 0.156 µM in test [1]; 0.63 µM in [2]; 0.677 µM in [3]; 0.103 µM in [4]; 1.06 µM in test [5]; 0.678 µM in [6]. Also, the TGI in test [7] was found to be 1.45 µM; in [8], 0.205 µM; in [9], 0.88 µM; in test [10], 0.454 µM.

As for `c1cc(CNC23CC4CC(CC(C4)C2)C3)cc(C[N+](Cc2cccc(CNC34CC5CC(CC(C5)C3)C4)c2)(Cc2cccc(CNC34CC5CC(CC(C5)C3)C4)c2)Cc2cccc(CNC34CC5CC(CC(C5)C3)C4)c2)c1` (centres undefined), the GI50 in test [1] was 4.98 µM; in [2] it was 5.11 µM; in [3] it was 3.04 µM; in test [4] it was 3.64 µM; in test [5] it was 2.11 µM; in test [6], 4.68 µM. Moreover, the GI50 was 5.9 µM in [7], 6.36 µM in test [8], 7.75 µM in test [9] and 3.51 µM in test [10]. The TGI was 29.5 µM in test [1]; 22.2 µM in test [2]; 8.42 µM in [3]; 11.3 µM in [4]; 5.3 µM in [5]; 11.3 µM in test [6]. For the same compound, the TGI in test [7] is 18.5 µM; in [8], 26.3 µM; in test [9] it was 30 µM; in test [10], 7.77 µM.

As for `Cc1ccc(C2=C(c3ccccc3)C(Br)(c3ccc(C)cc3)C(c3ccccc3)=C2c2ccc(C)cc2)cc1`, the TGI in test [1], in test [2], in test [3], in [4], in test [5] and in test [6] was above 100 µM in each case. Besides, the TGI in [7], in test [8], in test [9] and in test [10] was above 100 µM each time.

For `COC(=O)C1=CNC=C(C(=O)OC)C1C1=CC(=O)C(C)=CC1=O`, the GI50 is 13.1 µM in [1]; 14.9 µM in [2]; 1.94 µM in test [3]; 1.71 µM in test [4]; 14 µM in test [5]; 16.5 µM in [6]. Also, the GI50 is 13 µM in test [7], 20.7 µM in test [8], 6.2 µM in [9] and 14.1 µM in [10]. The TGI stood at 33.6 µM in test [1]; 28.1 µM in test [2]; 3.79 µM in [3]; 5.88 µM in test [4]; 28.6 µM in test [5]; 32.1 µM in [6]. In addition, the TGI was 25.8 µM in test [7], 43.7 µM in test [8], 15.5 µM in [9] and 27.5 µM in test [10].

With `COc1nc2ccccc2cc1-c1nc2c(cnn2-c2ccc(Br)cc2)c(=O)[nH]1`, the GI50 was 0.0139 µM in [1]; 0.587 µM in [2]; 0.0196 µM in test [3]; 0.0158 µM in test [4]; 0.0276 µM in test [5]; 0.0241 µM in test [6]. Besides, the GI50 was 0.0739 µM in test [7], 0.0293 µM in test [8], 0.21 µM in test [9] and 0.519 µM in test [10]. Besides, the TGI in test [1] is 0.521 µM; in test [2], above 50 µM; in [3] it was above 50 µM; in test [4], 0.0815 µM; in [5], above 50 µM; in test [6] it was 7.42 µM. Also, the figures for the TGI in test [7], in test [9] and in test [10] were above 50 µM, 8.8 µM and above 50 µM, respectively.

As to `COc1cc2c(cc1OC)C(CC(=O)NN=C(C)C)NCC2` (centres undefined), the TGI in test [1], in test [2], in test [3], in [4], in [5] and in test [6] was above 100 µM throughout. Moreover, the TGI in [7], in test [8], in test [9] and in test [10] was above 100 µM each time.

`Nn1c(=O)n(Cc2ccccc2)n(-c2ccccc2)c1=O`: the TGI in test [1], in test [2], in test [3], in [4], in [5] and in [6] was above 100 µM in each case. Also, the TGI in test [7], in test [8], in test [9] and in test [10] was above 100 µM throughout.

Regarding `COC(=O)[C@H](C)NC(=O)NC(=O)NC(=O)CI`, the GI50 was 15.4 µM in test [1]; 17.3 µM in test [2]; 13.9 µM in test [3]; 2.15 µM in test [4]; 2.27 µM in [5]; 17.3 µM in test [6]. Moreover, the GI50 in test [7] is 19.8 µM; in test [8] it was 17.6 µM; in test [9] it was 16.9 µM; in [10] it was 2.07 µM. Moreover, the TGI was 30.4 µM in test [1]; 33.6 µM in test [2]; 28.4 µM in [3]; 4.51 µM in test [4]; 5.97 µM in [5]; 31.4 µM in test [6]. Besides, the TGI in test [7] stood at 39.3 µM; in test [8], 31.8 µM; in [9], 30.6 µM; in test [10] it was 5.13 µM.

Take `CC(C)(C)c1cc(C(C)(C)C)cc(S(=O)(=O)Nc2cc3ccccc3cc2C(=O)NCCN)c1`: the GI50 is 1.77 µM in test [1]; 1.75 µM in [2]; 1.75 µM in [3]; 2.04 µM in test [4]; 1.6 µM in test [5]; 1.75 µM in test [6]. For the same compound, the GI50 in [7] is 1.86 µM; in [8], 1.75 µM; in test [9], 1.78 µM; in [10], 1.54 µM. In addition, the TGI in test [1] amounted to 3.3 µM; in [2], 3.24 µM; in test [3] it was 3.22 µM; in [4], 4.22 µM; in test [5] it was 3.02 µM; in test [6], 3.15 µM. The TGI in test [7] was 3.6 µM; in test [8], 3.13 µM; in [9] it was 3.26 µM; in [10], 3.13 µM.
